# Experimental data: US11167034B2, “Polymeric paste compositions for drug delivery” (The University of British Columbia, priority 2017, dated 2021)
# What was measured:
# [1] = In vitro drug release assay from polymeric paste (RP-HPLC-UV); assay type: physicochemical; settings: for drug released by day 50: PEG:PLGA 63:37 and PEG:PLGA:Diblock 50:37:13 pastes, 1% docetaxel, 4% enzalutamide, FIG. 12A, 12B; for drug released by day 7: 8% w/w lidocaine
# Description: The drug-loaded paste can be aliquoted for in vitro release studies. Paste (50-100 mg) is deposited at the bottom of a test tube and release medium is added (5-10 mL, sink conditions). Release medium is phosphate buffered saline (PBS, 10 mM, pH 7.4)) or PBS containing 1% Albumin. The test tubes are kept in a 37° C. incubator until the end of the study. Release samples are taken at appropriate time points by replacing the complete release medium (supernatant) and analyzing it for total drug using Reversed phase high-performance liquid chromatography with ultraviolet (UV) detection (RP-HPLC-UV).
# [2] = Kidney pelvis injection of gemcitabine paste; assay type: in vivo, pigs; settings: 5% gemcitabine in sodium hyaluronate containing paste, pig kidney pelvis
# Description: After placement of a ureteral catheter, three pigs received an injection of 1-2 mL of polymeric paste into the kidney pelvis. After removal of the ureteral catheter, a urinary catheter was placed and urine collected for 3 h intervals over 24 h. Blood was collected from an ear vein over 24 h and gemcitabine concentrations were determined using ultra high performance liquid chromatography tandem mass spectrometry (UHPLC-MS/MS).
# The drug gemcitabine was incorporated at 5% (m/m) in the sodium hyaluronate containing paste. This paste was injected through the 5 F catheter into the kidney pelvis of a pig.
# [3] = single local injection, regional delivery of lidocaine; cited from earlier work
# [4] = Local delivery of lidocaine paste subcutaneously in rats, serum lidocaine; assay type: in vivo; settings: for maximum serum concentration: subcutaneous, rats
# Description: (§1) Five groups of rats (male, Sprague Dawley™) with six animals in each group received one injection of paste formulation (0.1 mL) subcutaneously in their flank. The paste formulation was based on a 50:50 mixture of PEG 300™ and PLGA. Lidocaine was incorporated into the paste at 80, 100, 120, 140, and 160 mg per g of paste. The corresponding doses for each group were 23, 29, 36, 40 and 45 mg of Lidocaine per kg.
# Blood was collected from the saphenous vein over four weeks at 0, 0.25, 1, 4, 24, 48, 168 336, 504 and 672 hours after injection. Lidocaine concentrations in rat serum were determined using ultra high performance liquid chromatography tandem mass spectrometry (UHPLC-MS/MS). A non-compartmental analysis was then applied to each data set using Phoenix 64™ (Build 6.3.0.395) WinNonlin 63™ to determine relevant pharmacokinetic parameters.
# as §1, with “Sprague Dawley)” for “Sprague Dawley™)”, “of lidocaine” for “of Lidocaine”
# [5] = PEG:PLGA:Diblock 50:37:13, Tamsulosin 2% w/w, FIG. 17
# [6] = PEG:PLGA:Diblock 50:37:13, lidocaine 8%, cephalexin 2%, ibuprofen 5%, FIG. 18
# [7] = PEG:PLGA:Diblock 50:37:13, lidocaine 10%, desoximetasone 1%, FIG. 14
# [8] = PEG:PLGA 50:50 paste, docetaxel 4%, bicalutamide 4%, VPC-27 10%, FIG. 3A
# [9] = PEG:PLGA:Diblock 50:37:13, docetaxel 0.25%, bicalutamide 4%, VPC-27 4%, FIG. 5
# [10] = high diblock concentration (PEG:PLGA:Diblock 50:25:25), docetaxel 0.5%, FIG. 6D
# [11] = low diblock concentration (PEG:PLGA:Diblock 50:43:7), docetaxel 0.5%, FIG. 6A
compound,measurement,setting,value
CCOc1ccccc1OCCN[C@H](C)Cc1ccc(OC)c(S(N)(=O)=O)c1 [Tamsulosin],drug released by day 6,[1]; [5],70%
same,drug released on day 21,[1]; [5],80%
same,"drug released, burst phase on day 1",[1]; [5],47%
CC1=C(C(=O)O)N2C(=O)[C@@H](NC(=O)[C@H](N)c3ccccc3)[C@H]2SC1 [Cephalexin],drug release at 1 day,"[1]; PEG:PLGA:Diblock 50:37:13, cephalexin between 2 and 19% loading, PBS without albumin, FIG. 10",almost all drug was released
same,"drug released, maximum on day 3",[1]; [6],80%
Nc1ccn([C@@H]2O[C@H](CO)[C@@H](O)C2(F)F)c(=O)n1 [gemcitabine],blockage of the ureter,[2],did not result in any blockage of the ureter
same,Gemcitabine levels in urine,[2]; FIG. 25A,initially high and levelled off after 5-7 hours
same,Serum gemcitabine levels,[2]; FIG. 25B,"very low, but detectable in all pigs"
C[C@@H]1C[C@H]2[C@@H]3CCC4=CC(=O)C=C[C@]4(C)[C@@]3(F)[C@@H](O)C[C@]2(C)[C@H]1C(=O)CO [desoximetasone],drug released by day 35,[1]; [7],100%
same,"drug released, burst within the first day",[1]; [7],50%
CC(=O)O[C@@]12CO[C@@H]1C[C@H](O)[C@@]1(C)C(=O)[C@H](O)C3=C(C)[C@@H](OC(=O)[C@H](O)[C@@H](NC(=O)OC(C)(C)C)c4ccccc4)C[C@@](O)([C@@H](OC(=O)c4ccccc4)[C@H]21)C3(C)C [docetaxel],"drug released, fast burst over 5 days",[1]; [8],10%
same,further encapsulated drug released over the next 40 days,[1]; [8],20%
same,drug release on day 18,"[1]; PEG:PLGA 55:45 paste without diblock, docetaxel 1%, bicalutamide 4%, VPC-27 4%, FIG. 8",around 10%
same,drug released by day 50,[1],approximately 50%
same,drug released after one day,[1]; [9],24%
same,drug released on day 35,[1]; [9],32%
same,drug release at day 8,"[1]; PEG:PLGA:Diblock 50:37:13, docetaxel 1%, rapamycin 1%, VPC-27 4%, FIG. 9",~45%
same,drug released on day 21,[1]; [10],78%
same,"drug released, burst on day 1",[1]; [10],67%
same,drug released on day 21,[1]; [11],34%
same,"drug released, burst on day 1",[1]; [11],20%
CNC(=O)c1ccc(N2C(=S)N(c3ccc(C#N)c(C(F)(F)F)c3)C(=O)C2(C)C)cc1F [enzalutamide],drug released by day 50,[1],approximately 40%
CC(C)Cc1ccc(C(C)C(=O)O)cc1 (stereo not shown) [Ibuprofen],drug released by day 35,[1]; [6],approximately 70%
same,"drug released, burst release by day one",[1]; [6],54%
CCN(CC)CC(=O)Nc1c(C)cccc1C [lidocaine],drug released by day 7,"[1]; PEG:PLGA:Diblock 50:37:13, crescent shape",88%
same,drug released by day 7,"[1]; PEG:PLGA:Diblock 50:37:13, cylinder shape",92%
same,drug released by day 7,"[1]; PEG:PLGA:Diblock 50:37:13, hemisphere shape",approximately 65%
same,drug released by day 35,[1]; [6],approximately 70%
same,"drug released, burst release by day one",[1]; [6],54%
same,drug released by day 35,[1]; [7],80%
same,"drug released, burst within the first day",[1]; [7],50%
same,drug released by day 18,"[1]; all PEG:PLGA pastes without diblock (50:50, 55:45, 60:40), 8% lidocaine, FIG. 15",100%
same,duration,[3],60 to 120 min
same,onset,[3],3 min
same,maximum serum concentration,"[4]; 80 mg/g paste (PEG 300:PLGA 50:50), 23 mg/kg",557.26 ± 81.15 ng/mL
same,maximum serum concentration,"[4]; 100 mg/g paste (PEG 300:PLGA 50:50), 29 mg/kg",578.90 ± 162.59 ng/mL
same,maximum serum concentration,"[4]; 120 mg/g paste (PEG 300:PLGA 50:50), 36 mg/kg",638.03 ± 190.61 ng/mL
same,maximum serum concentration,"[4]; 140 mg/g paste (PEG 300:PLGA 50:50), 40 mg/kg",855.98 ± 196.18 ng/mL
same,maximum serum concentration,"[4]; 160 mg/g paste (PEG 300:PLGA 50:50), 45 mg/kg",1148.88 ± 838.97 ng/mL
same,maximum concentrations detected in serum in each group,"[4]; all studied strengths, below upper limit of therapeutic range",< 5000 ng/mL
